In US9988378B2, “1 H-pyrazole and 4,5-disubstituted thiazole inhibitors of SYK” (Hoffmann-La Roche Inc., priority 2012, dated 2018):

How the values were obtained:
[1] = target: T1, recombinant human SYK360-635 (Homo sapiens, UniProt P43405); assay: SYK kinase assay, 33P ATP filtration (ENZYME_FILTRATION_IC50); type: biochemical; conditions: SYK aa 360-635 0.5 nM, ATP 20 μM, peptide 5 μM, 30° C. 15 min
T1 construct: truncated construct of Spleen Tyrosine Kinase aa 360-635; made in house
Protocol: Determination of IC50 of Spleen Tyrosine Kinase (SYK) Inhibition:
SYK kinase assay is a standard kinase assay adapted to a 96 well plate format. This assay is performed in 96-well format for IC50 determination with […] which represented 10 half log dilutions and a 40 μL reaction volume. The assay measures the incorporation of radiolabeled ^33P ATP into an N-terminally biotinylated peptide substrate, derived from naturally occurring phosphoacceptor consensus sequence (Biotin-11aa DY*E). Phosphorylated products were detected upon termination of reactions with EDTA and the addition of Streptavidin coated beads. Representative results are in Table II above.
Assay plates: 96-well MultiScreen 0.65 um filter plates (Millipore Cat. No.: MADVNOB10) Streptavidin coated beads: Streptavidin Sepharose™, suspension 5.0 mL, in 50 mM EDTA/PBS diluted (1:100), (Amersham, Cat. No.: 17-5113-01)
Compounds: 10 mM in 100% dimethylsulfoxide (DMSO), final conc.: compound 0.003-100 uM in 10% DMSO
Enzyme: SYK RPA purified, truncated construct of Spleen Tyrosine Kinase aa 360-635, stock solution 1 mg/mL, MW: 31.2 KDa, final conc.:0.0005 μM.
Peptide 1: biotinylated peptide is derived from a naturally occurring phosphor-acceptor consensus sequence (Biotin-EPEGDYEEVLE), special order from QCB, stock solution 20 mM, final conc.: 5.0 μM.
ATP: Adenosine-5′-triphosphate 20 mM, (ROCHE Cat. No.: 93202720), final concentration: 20 μM
Buffer: HEPES: 2-Hydroxyethyl piperazine-2-ethanesulfonic acid (Sigma, Cat. No.: H-3375) final concentration: 50 mM HEPES pH7.5
BSA: Bovine Serum Albumin Fraction V, fatty acid free (Roche Diagnostics GmbH, Cat. No. 9100221) diluted to a final concentration of 0.1%
EDTA: EDTA stock solution 500 mM, (GIBCO, Cat. No.: 15575-038) final concentration: 0.1 mM
DTT: 1,4-Dithiothreitol (Roche Diagnostics GmbH, Cat. No.: 197777), final conc.: 1 mM MgCl2×6H2O: MERCK, Cat. No.: 105833.1000, final concentration: 10 mM
Assay Dilution Buffer (ADB): 50 mM HEPES, 0.1 mM EGTA, 0.1 mM Na Vanadate, 0.1 mM β-glycerophosphate, 10 mM MgCl2, 1 mM DTT, 0.1% BSA, pH 7.5
Bead wash buffer: 10 g/L PBS (Phosphate buffered saline) with 2M NaCl+1% phosphoric acid.
In 40 μL volume, 26 μL of ADB diluted, purified recombinant human SYK360-635 [0.5 nM] was mixed with 4 μL of 10× concentrations of the test compounds, [usually 100 μM-0.003 μM] in [10%] DMSO and the mixture was incubated for 10 min at RT.
The kinase reaction was initiated by the addition of 10 μL 4× substrate cocktail containing the DYE peptide substrate [0 or 5 μM], ATP [20 μM] and ^33PγATP [2 μCi/rxn]. After incubation at 30° C. for 15 min, the reaction was terminated by the transfer of 25 μL pf the reaction sample to a 96 well 0.65 μm Millipore MADVNOB membrane/plate containing 200 μL 5 mM EDTA and 20% Streptavidine coated beads in PBS.
The unbound radionucleotides were washed under vacuum with 3×250 μL 2M NaCl; 2×250 μL 2M NaCl+1% phosphoric acid; 1×250 μL H2O. After the last wash membrane/plates were transferred to an adaptor plate, heat dried for 15 min at 60° C., and 50 μL scintillation cocktail was added to each well and 4 h later the amount of radioactivity was counted in a top counter.
The percent inhibition was calculated based on the uninhibited enzyme rate: % Inhibition=100/(1+(IC50/Inhibitor conc)^n)
The IC50 was calculated using a non-linear curve fit with XLfit software (ID Business Solution Ltd., Guilford, Surrey, UK).

RAMOS = assay: RAMOS_V2_IC50; type: cell-based; conditions: Homo sapiens
human whole blood = assay: IC50: human whole blood; type: cell-based

SMILES	IC50 [1]	IC50 (RAMOS)	IC50 (human whole blood)
c1ccc(-c2ncc(-c3cc[nH]n3)s2)cc1 [Compound I-1, 2-Phenyl-5-(1H-pyrazol-3-yl)-thiazole]	35.2 µM		
CCOC(=O)c1c[nH]nc1-c1nc2ccccn2n1 [Compound I-2, 3-[1,2,4]Triazolo[1,5-a]pyridin-2-yl-1H-pyrazole-4-carboxylic acid ethyl ester]	0.113 µM	> 34.1 µM	
Cc1ccc2sc(-c3n[nH]cc3C(=O)NC(C)(C)C)cc2c1 [Compound I-10, N-tert-butyl-3-(5-methylbenzo[b]thiophen-2-yl)-1H-pyrazole-4-carboxamide]	> 10 µM		> 50 µM
COc1cccc(-c2n[nH]cc2C(=O)NC(C)(C)C)n1 [Compound I-11, N-tert-butyl-3-(6-methoxypyridin-2-yl)-1H-pyrazole-4-carboxamide]	7.95 µM	> 34.1 µM	
CCOC(=O)c1c[nH]nc1-c1nc2c(s1)CCCC2 [Compound I-14, ethyl 3-(4,5,6,7-tetrahydrobenzo[d]thiazol-2-yl)-1H-pyrazole-4-carboxylate]	> 10 µM	> 34.1 µM	
CCOC(=O)c1c[nH]nc1-c1nc2c(s1)CCC2 [Compound I-15, ethyl 3-(5,6-dihydro-4H-cyclopenta[d]thiazol-2-yl)-1H-pyrazole-4-carboxylate]	> 10 µM	> 34.1 µM	
CC(C)(C)NC(=O)c1c[nH]nc1-c1nc2c(s1)CCCC2 [Compound I-19, N-tert-butyl-3-(4,5,6,7-tetrahydrobenzo[d]thiazol-2-yl)-1H-pyrazole-4-carboxamide]		> 34.1 µM	> 50 µM
O=C(NC1CCCC1)c1c[nH]nc1-c1nc(-c2ccccc2)cs1 [Compound I-20, N-cyclopentyl-3-(4-phenylthiazol-2-yl)-1H-pyrazole-4-carboxamide]	0.215 µM		> 50 µM
O=C(NC1CCOCC1)c1c[nH]nc1-c1nc2c(s1)CCC2 [Compound I-22, 3-(5,6-dihydro-4H-cyclopenta[d]thiazol-2-yl)-N-(tetrahydro-2H-pyran-4-yl)-1H-pyrazole-4-carboxamide]	1.99 µM	> 34.1 µM	
O=C(NC1CCOCC1)c1c[nH]nc1-c1nc2c(s1)CCCC2 [Compound I-23, N-(tetrahydro-2H-pyran-4-yl)-3-(4,5,6,7-tetrahydrobenzo[d]thiazol-2-yl)-1H-pyrazole-4-carboxamide]	7.87 µM	> 34.1 µM	
CN1CCC(NC(=O)c2c[nH]nc2-c2nc3c(s2)CCCC3)CC1 [Compound I-24, N-(1-methylpiperidin-4-yl)-3-(4,5,6,7-tetrahydrobenzo[d]thiazol-2-yl)-1H-pyrazole-4-carboxamide]			> 50 µM
O=C(NC1CCOCC1)c1c[nH]nc1-c1nc2ccccc2[nH]1 [Compound I-38, 3-(1H-Benzoimidazol-2-yl)-1H-pyrazole-4-carboxylic acid (tetrahydro-pyran-4-yl)-amide]		0.483 µM	0.87 µM
Cc1cccc2[nH]c(-c3ncsc3Nc3cccnc3)nc12 [Compound I-40, 4-(4-methyl-1H-benzo[d]imidazol-2-yl)-N-(pyridin-3-yl)thiazol-5-amine]	0.487 µM	0.764 µM	
c1cncc(Nc2scnc2-c2nc3cnccc3[nH]2)c1 [Compound I-41]	5.44 µM	> 31.2 µM	
CCC(C)(C)Nc1scnc1-c1nc2cc(C)ccc2[nH]1 [Compound I-42, 4-(5-methyl-1H-benzo[d]imidazol-2-yl)-N-tert-pentylthiazol-5-amine]	1.62 µM		> 50 µM
Cc1ccc2[nH]c(-c3ncsc3NC3CCCC3)nc2c1 [Compound I-43, N-cyclopentyl-4-(5-methyl-1H-benzo[d]imidazol-2-yl)thiazol-5-amine]	0.699 µM	> 34.1 µM	
Cc1ccc2[nH]c(-c3ncsc3NCC(C)C)nc2c1 [Compound I-44, N-isobutyl-4-(5-methyl-1H-benzo[d]imidazol-2-yl)thiazol-5-amine]	0.621 µM	7.98 µM	

The remaining lines, values ahead:

IC50 [1]	IC50 (RAMOS)	IC50 (human whole blood)	SMILES
2.08 µM	5.41 µM		CC(C)C(=O)Nc1c[nH]nc1-c1nc2ccccc2s1 [Compound I-3, N-(3-Benzothiazol-2-yl-1H-pyrazol-4-yl)-isobutyramide]
0.621 µM	3.83 µM		CC(C)(C)C(=O)Nc1c[nH]nc1-c1nc2ccccc2s1 [Compound I-4, N-(3-Benzothiazol-2-yl-1H-pyrazol-4-yl)-2,2-dimethyl-propionamide]
1.28 µM	4.65 µM		O=C(Nc1c[nH]nc1-c1nc2ccccc2s1)C1CCCC1 [Compound I-5, Cyclopenanecarboxylic acid (3-benzothiazol-2-yl-1H-pyrazol-4-yl)-amide]
2.76 µM	12 µM		O=C(Nc1c[nH]nc1-c1nc2ccccc2s1)C1CC1 [Compound I-6, Cyclopropanecarboxylic acid (3-benzothiazol-2-yl-1H-pyrazol-4-yl)-amide]
0.562 µM	0.552 µM	20.4 µM	CC(C)(CO)NC(=O)c1c[nH]nc1-c1nc2ccccc2s1 [Compound I-7, 3-(benzo[d]thiazol-2-yl)-N-(1-hydroxy-2-methylpropan-2-yl)-1H-pyrazole-4-carboxamide]
> 10 µM		> 50 µM	Cc1ccc2sc(-c3n[nH]cc3C(=O)NC(C)(C)CO)cc2c1 [Compound I-9, N-(1-hydroxy-2-methylpropan-2-yl)-3-(5-methylbenzo[b]thiophen-2-yl)-1H-pyrazole-4-carboxamide]
4.61 µM	5.21 µM		O=C(Nc1c[nH]nc1-c1nc2ccccc2s1)C1CCOCC1 [Compound I-25, Tetrahydro-pyran-4-carboxylic acid (3-benzothiazol-2-yl-1H-pyrazol-4-yl)-amide]
1.23 µM			O=C(Nc1c[nH]nc1-c1nc2ccccc2s1)C1CCC1 [Compound I-26, Cyclobutanecarboxylic acid (3-benzothiazol-2-yl-1H-pyrazol-4-yl)-amide]
4.64 µM	15.5 µM		CC(=O)OCC(C)(C)C(=O)Nc1c[nH]nc1-c1nc2ccccc2s1 [Compound I-27, Acetic acid 2-(3-benzothiazol-2-yl-1H-pyrazol-4-ylcarbamoyl)-2-methyl-propyl ester]
1.13 µM	6.41 µM		CC(C)(CO)C(=O)Nc1c[nH]nc1-c1nc2ccccc2s1 [Compound I-28, N-(3-Benzothiazol-2-yl-1H-pyrazol-4-yl)-3-hydroxy-2,2-dimethyl-propionamide]
	0.292 µM	2.54 µM	CC(C)NC(=O)c1c[nH]nc1-c1nc2ccccc2[nH]1 [Compound I-36, 3-(1H-Benzoimidazol-2-yl)-1H-pyrazole-4-carboxylic acid isopropylamide]
	0.14 µM	2.86 µM	CC(C)(C)NC(=O)c1c[nH]nc1-c1nc2ccccc2[nH]1 [Compound I-37, 3-(1H-Benzoimidazol-2-yl)-1H-pyrazole-4-carboxylic acid tert-butylamide]
	0.986 µM	2.87 µM	CC(C)(CO)NC(=O)c1c[nH]nc1-c1nc2ccccc2[nH]1 [Compound I-39, 3-(1H-Benzoimidazol-2-yl)-1H-pyrazole-4-carboxylic acid (2-hydroxy-1,1-dimethyl-ethyl)-amide]
